According to the Kinase Knowledgebase extract (Sharma et al. 2016):

molecular target: PIK3CA (human) (UniProt P42336); assay: Assessment of PIK3CA Kinase Activity
Sequence (P42336 whole entry, looked up): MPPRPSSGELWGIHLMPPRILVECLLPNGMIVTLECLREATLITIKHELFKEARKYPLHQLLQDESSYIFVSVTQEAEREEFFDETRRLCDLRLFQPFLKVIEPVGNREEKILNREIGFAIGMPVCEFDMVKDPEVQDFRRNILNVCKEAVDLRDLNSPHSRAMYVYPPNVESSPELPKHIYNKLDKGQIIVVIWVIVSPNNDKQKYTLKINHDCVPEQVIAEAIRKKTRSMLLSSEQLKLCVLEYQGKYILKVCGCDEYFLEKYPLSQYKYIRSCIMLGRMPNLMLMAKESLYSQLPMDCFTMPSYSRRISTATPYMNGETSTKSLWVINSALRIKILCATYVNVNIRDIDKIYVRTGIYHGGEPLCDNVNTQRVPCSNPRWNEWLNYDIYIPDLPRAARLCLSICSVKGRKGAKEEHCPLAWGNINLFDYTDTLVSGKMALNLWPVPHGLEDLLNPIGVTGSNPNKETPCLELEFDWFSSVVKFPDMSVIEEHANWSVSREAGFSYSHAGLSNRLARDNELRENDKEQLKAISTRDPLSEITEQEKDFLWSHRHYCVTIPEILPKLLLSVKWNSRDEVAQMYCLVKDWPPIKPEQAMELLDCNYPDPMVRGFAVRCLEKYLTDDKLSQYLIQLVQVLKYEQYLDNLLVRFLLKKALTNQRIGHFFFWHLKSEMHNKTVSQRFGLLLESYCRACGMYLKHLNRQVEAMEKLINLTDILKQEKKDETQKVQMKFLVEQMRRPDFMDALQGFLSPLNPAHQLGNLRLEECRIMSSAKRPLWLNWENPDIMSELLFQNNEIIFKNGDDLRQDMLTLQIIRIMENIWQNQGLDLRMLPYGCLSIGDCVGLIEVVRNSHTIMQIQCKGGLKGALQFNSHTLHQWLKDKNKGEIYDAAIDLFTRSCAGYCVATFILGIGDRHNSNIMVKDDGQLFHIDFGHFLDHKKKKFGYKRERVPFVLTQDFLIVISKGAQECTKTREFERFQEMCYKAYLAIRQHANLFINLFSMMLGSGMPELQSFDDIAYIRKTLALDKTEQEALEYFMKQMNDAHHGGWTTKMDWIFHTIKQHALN

| Structure (SMILES) | IC50 |
| --- | --- |
| CN(CCCCCCC(=O)NO)Cc1cc2nc(-c3cccc4[nH]ncc34)nc(N3CCOCC3)c2s1 | < 100 nM |
| O=C(NO)c1cnc(NCc2cc3cc(-c4cccc5[nH]ncc45)nc(N4CCOCC4)c3s2)nc1 | 100 to 1000 nM |
| O=C(CCCCCNc1cc2nc(-c3cccc4[nH]ncc34)nc(N3CCOCC3)c2s1)NO | 100 to 1000 nM |
| CCN(Cc1cc2nc(-c3ccc(N)cc3)nc(N3CCOCC3)c2s1)c1ncc(C(=O)NO)cn1 | 100 to 1000 nM |
| CN(Cc1cc2nc(-c3cccc(N)c3)nc(N3CCOCC3)c2s1)c1ncc(C(=O)NO)cn1 | 100 to 1000 nM |
| CN(Cc1cc2nc(-c3cnc(C(N)=O)nc3)nc(N3CCOCC3)c2s1)c1ncc(C(=O)NO)cn1 | < 100 nM |
| CS(=O)(=O)N1CCN(Cc2cc3nc(-c4cccc5nn(CCCCC(=O)NO)cc45)nc(N4CCOCC4)c3s2)CC1 | 100 to 1000 nM |
| CN(Cc1cc2nc(-c3cccc4[nH]ncc34)nc(N3CCOCC3)c2s1)c1ncc(C=CC(=O)NO)cn1 | < 100 nM |
| Nc1ccc(-c2nc(N3CCOCC3)c3sc(CNc4ncc(C(=O)NO)cn4)cc3n2)cc1 | 100 to 1000 nM |
| CN(Cc1cc2nc(-c3ccc(CO)cc3)nc(N3CCOCC3)c2s1)c1ncc(C(=O)NO)cn1 | 100 to 1000 nM |
| CN(Cc1cc2nc(-c3cnc(N)nc3)nc(N3CCOCC3)c2s1)c1ncc(C(=O)NO)cn1 | < 100 nM |
| O=C(NO)c1ccc(NCc2cc3nc(-c4cccc5[nH]ncc45)nc(N4CCOCC4)c3s2)nc1 | < 100 nM |
| CC1CN(c2nc(-c3cccc4[nH]ncc34)nc3cc(CN(C)c4ncc(C(=O)NO)cn4)sc23)CC(C)O1 (stereo unspecified) | 100 to 1000 nM |
| CN(Cc1cc2nc(-c3ccc(CN)cc3)nc(N3CCOCC3)c2s1)c1ncc(C(=O)NO)cn1 | 100 to 1000 nM |
| O=C(CCCCCCNCc1cc2nc(-c3cccc4[nH]ncc34)nc(N3CCOCC3)c2s1)NO | < 100 nM |
| CN(Cc1cc2nc(-c3cccc(O)c3)nc(N3CCOCC3)c2s1)c1ncc(C(=O)NO)cn1 | < 100 nM |
| O=C(NO)c1cnc(N2CCC(CNCc3cc4nc(-c5cccc6[nH]ncc56)nc(N5CCOCC5)c4s3)CC2)nc1 | 100 to 1000 nM |
| O=C(O)CN(Cc1cc2nc(-c3cccc4[nH]ncc34)nc(N3CCOCC3)c2s1)c1ncc(C(=O)NO)cn1 | < 100 nM |
| Nc1ccc(-c2nc(N3CCOCC3)c3sc(CNCc4ccc(/C=C/C(=O)NO)cc4)cc3n2)cc1 | 100 to 1000 nM |
| O=C(NO)c1cnc(N2CCC(CNc3cc4nc(-c5cccc6[nH]ncc56)nc(N5CCOCC5)c4s3)CC2)nc1 | < 100 nM |
| O=C(CCCNCc1cc2nc(-c3cccc4[nH]ncc34)nc(N3CCOCC3)c2s1)NO | 100 to 1000 nM |

| Structure (SMILES) | IC50 |
| --- | --- |
| O=C(NO)c1cc2nc(-c3cccc4[nH]ncc34)nc(N3CCOCC3)c2s1 | < 100 nM |
| CCc1ncc(-c2nc(N3CCOCC3)c3sc(CN(C)c4ncc(C(=O)NO)cn4)cc3n2)cn1 | < 100 nM |
| CC(C)(C)CN(Cc1cc2nc(-c3cccc4[nH]ncc34)nc(N3CCOCC3)c2s1)c1ncc(C(=O)NO)cn1 | 100 to 1000 nM |
| CC(=O)OCCN(Cc1cc2nc(-c3cccc4[nH]ncc34)nc(N3CCOCC3)c2s1)c1ncc(C(=O)NO)cn1 | < 100 nM |
| CN(Cc1cc2nc(-c3cccc(CO)c3)nc(N3CCOCC3)c2s1)c1ncc(C(=O)NO)cn1 | < 100 nM |
| CN(Cc1cc2nc(-c3ccccc3CO)nc(N3CCOCC3)c2s1)c1ncc(C(=O)NO)cn1 | 100 to 1000 nM |
| CN(Cc1cc2nc(-c3cccc(C(N)=O)c3)nc(N3CCOCC3)c2s1)c1ncc(C(=O)NO)cn1 | 100 to 1000 nM |
| COc1ccccc1Nc1nc(-c2cccc3[nH]ncc23)nc2cc(CN(C)c3ncc(C(=O)NO)cn3)sc12 | 100 to 1000 nM |
| CC(=O)Nc1ccc(-c2nc(N3CCOCC3)c3sc(CN(C)c4ncc(C(=O)NO)cn4)cc3n2)cn1 | < 100 nM |
| O=C(C=Cc1ccc(S(=O)(=O)Nc2cc3nc(-c4cccc5[nH]ncc45)nc(N4CCOCC4)c3s2)cc1)NO | < 100 nM |
| CN(Cc1cc2nc(-c3cc[nH]c3)nc(N3CCOCC3)c2s1)c1ncc(C(=O)NO)cn1 | < 100 nM |
| O=C(NO)c1cnc(N2CCN(S(=O)(=O)c3cc4nc(-c5cccc6[nH]ncc56)nc(N5CCOCC5)c4s3)CC2)nc1 | < 100 nM |
| CN(C)CCN(Cc1cc2nc(-c3cccc4[nH]ncc34)nc(N3CCOCC3)c2s1)c1ncc(C(=O)NO)cn1 | < 100 nM |
| Cc1ccc(-c2nc(N3CCOCC3)c3sc(CN(C)c4ncc(C(=O)NO)cn4)cc3n2)cc1 | 100 to 1000 nM |
| CN(Cc1cc2nc(-c3cccc4[nH]ncc34)nc(N3CCOCC3)c2s1)c1ccc(C(=O)NO)cc1 | < 100 nM |
| CN(Cc1cc2nc(-c3ccc(N)nc3)nc(N3CCOCC3)c2s1)c1ncc(C(=O)NO)cn1 | < 100 nM |
| CN(Cc1cc2nc(-c3ccc(O)cc3)nc(N3CCOCC3)c2s1)c1ncc(C(=O)NO)cn1 | 100 to 1000 nM |
| O=C(NO)c1ccc(NCc2cc3nc(-c4cccc5[nH]ncc45)nc(N4CCOCC4)c3s2)cc1 | 100 to 1000 nM |
| O=C(NO)c1ccc(CNCc2cc3nc(-c4cccc5[nH]ncc45)nc(N4CCOCC4)c3s2)cc1 | 100 to 1000 nM |
| CN(C)c1ccc(-c2nc(N3CCOCC3)c3sc(CN(C)c4ncc(C(=O)NO)cn4)cc3n2)cn1 | 100 to 1000 nM |
| CN(Cc1cc2nc(-c3cccc4[nH]ncc34)nc(N3CCCCC3)c2s1)c1ncc(C(=O)NO)cn1 | 100 to 1000 nM |

| Structure (SMILES) | IC50 |
| --- | --- |
| N#CCCN(Cc1cc2nc(-c3cccc4[nH]ncc34)nc(N3CCOCC3)c2s1)c1ncc(C(=O)NO)cn1 | < 100 nM |
| CN(Cc1cc2nc(-c3cccc4[nH]ncc34)nc(NCCO)c2s1)c1ncc(C(=O)NO)cn1 | 100 to 1000 nM |
| COc1cccc(-c2nc(N3CCOCC3)c3sc(CN(C)c4ncc(C(=O)NO)cn4)cc3n2)c1 | 100 to 1000 nM |
| COCCN(Cc1cc2nc(-c3cccc4[nH]ncc34)nc(N3CCOCC3)c2s1)c1ncc(C(=O)NO)cn1 | < 100 nM |
| CN(Cc1cc2nc(-c3ccc(N)cc3)nc(N3CCOCC3)c2s1)c1ncc(C(=O)NO)cn1 | < 100 nM |
| CC(C)(Nc1ncc(C(=O)NO)cn1)c1cc2nc(-c3cccc4[nH]ncc34)nc(N3CCOCC3)c2s1 | 100 to 1000 nM |
| CN(Cc1cc2nc(-c3cccc4[nH]ncc34)nc(Nc3ccccc3)c2s1)c1ncc(C(=O)NO)cn1 | < 100 nM |
| O=C(C=Cc1ccc(CNCc2cc3nc(-c4cccc5[nH]ncc45)nc(N4CCOCC4)c3s2)cc1)NO | 100 to 1000 nM |
| CN(CC1CCN(c2ncc(C(=O)NO)cn2)CC1)c1cc2nc(-c3cccc4[nH]ncc34)nc(N3CCOCC3)c2s1 | < 100 nM |
| O=C(CCCCNc1cc2nc(-c3cccc4[nH]ncc34)nc(N3CCOCC3)c2s1)NO | 100 to 1000 nM |
| CC(=O)NCCN(Cc1cc2nc(-c3cccc4[nH]ncc34)nc(N3CCOCC3)c2s1)c1ncc(C(=O)NO)cn1 | < 100 nM |
| Cn1cc(CNc2cc3nc(-c4cccc5[nH]ncc45)nc(N4CCOCC4)c3s2)c2cc(C(=O)NO)ccc21 | < 100 nM |
| COCCN(CCOC)c1nc(-c2cccc3[nH]ncc23)nc2cc(CN(C)c3ncc(C(=O)NO)cn3)sc12 | 100 to 1000 nM |
| CC(C)CN(Cc1cc2nc(-c3cccc4[nH]ncc34)nc(N3CCOCC3)c2s1)c1ncc(C(=O)NO)cn1 | 100 to 1000 nM |
| CN(CCCCC(=O)NO)Cc1cc2nc(-c3cccc4[nH]ncc34)nc(N3CCOCC3)c2s1 | 100 to 1000 nM |
| CN(Cc1cc2nc(-c3ccc(N)cc3)nc(N3CCOCC3)c2s1)c1ccc(C(=O)NO)cc1 | 100 to 1000 nM |
| Cc1nc2ccc(-c3nc(N4CCOCC4)c4sc(CN(C)c5ncc(C(=O)NO)cn5)cc4n3)cc2[nH]1 | < 100 nM |
| O=C(CCCCCN1CCN(Cc2cc3nc(-c4cccc5[nH]ncc45)nc(N4CCOCC4)c3s2)CC1)NO | < 100 nM |
| CN(Cc1cc2nc(-c3cc(F)cc4[nH]ncc34)nc(N3CCOCC3)c2s1)c1ncc(C(=O)NO)cn1 | < 100 nM |
